Measurements published in patent US7989451B2, “Tricyclic 1,2,4-triazine oxides and compositions for therapeutic use in cancer treatments” (Auckland Uniservices Limited, priority 2005, dated 2011).
Counter-ions that a name gives are not always drawn.

Row | SMILES | melting point
1 | CN(C)CCNc1nc2ccc3c(c2[n+]([O-])n1)CCCO3 [Compound 236, N^1,N^1-Dimethyl-N^2-(1-oxido-9,10-dihydro-8H-chromeno[6,5-e][1,2,4]triazin-3-yl)-1,2-ethanediamine] | 119 to 120 °C
2 | CC1Cc2cc3nc(I)n[n+]([O-])c3cc2C1 (stereo not shown) [Compound 100, 3-Iodo-7-methyl-7,8-dihydro-6H-indeno[5,6-e][1,2,4]triazine 1-Oxide] | 140 to 142 °C
3 | CCN(CC)CCNc1nc2cc3c(cc2[n+]([O-])n1)CCO3 [Compound 209, N^1,N^1-Diethyl-N^2-(1-oxido-7,8-dihydrofuro[2,3-g][1,2,4]benzotriazin-3-yl)-1,2-ethanediamine] | 150 to 151 °C
4 | CN(C)CCNc1nc2cc3c(cc2[n+]([O-])n1)CCC3 [Compound 22, N^1,N^1-Dimethyl-N^2-(1-oxido-7,8-dihydro-6H-indeno[5,6-e][1,2,4]triazin-3-yl)-1,2-ethanediamine] | 122 to 124 °C
5 | CCNc1nc2cc3c(cc2[n+]([O-])n1)CCN(C)C3 [Compound 258, N-Ethyl-7-methyl-6,7,8,9-tetrahydro[1,2,4]triazino[6,5-g]isoquinolin-3-amine 1-Oxide] | 193 to 196 °C
6 | CN(C)CCNc1nc2cc3c(cc2[n+]([O-])n1)OCC3 [Compound 197, N^1,N^1-Dimethyl-N^2-(1-oxido-6,7-dihydrofuro[3,2-g][1,2,4]benzotriazin-3-yl)-1,2-ethanediamine] | 153 to 157 °C
7 | CN(C)CCNc1nc2cc3c(cc2[n+]([O-])n1)OCCC3 [Compound 241, N^1,N^1-Dimethyl-N^2-(1-oxido-7,8-dihydro-6H-chromeno[6,7-e][1,2,4]triazin-3-yl)-1,2-ethanediamine] | 150 to 152 °C
8 | Nc1nc2ccc3c(c2[n+]([O-])n1)CCCC3 [Compound 170, 7,8,9,10-Tetrahydronaphtho[2,1-e][1,2,4]triazin-3-amine 1-Oxide] | 271 °C (dec.)
9 | CCNc1n[n+]([O-])c2cc3c(cc2[n+]1[O-])CC(CO)C3 (stereo not shown) [Compound 127, [3-(Ethylamino)-1,4-dioxido-7,8-dihydro-6H-indeno[5,6-e][1,2,4]triazin-7-yl]methanol] | 153 to 155 °C
10 | CC1Cc2cc3nc(NCCCN4CCOCC4)n[n+]([O-])c3cc2C1 (stereo not shown) [Compound 98, 7-Methyl-N-[3-(4-morpholinyl)propyl]-7,8-dihydro-6H-indeno[5,6-e][1,2,4]triazin-3-amine 1-Oxide] | 138 to 140 °C
11 | CCNc1nc2cc3c(cc2[n+]([O-])n1)CC(N(C)C)C3 (stereo not shown) [Compound 113, N^3-Ethyl-N^7,N^7-dimethyl-7,8-dihydro-6H-indeno[5,6-e][1,2,4]triazine-3,7-diamine 1-Oxide] | 187 to 190 °C
12 | [O-][n+]1nc(NCCCN2CCOCC2)nc2cc3c(cc21)CCC3 [Compound 60, N-[3-(4-Morpholinyl)propyl]-7,8-dihydro-6H-indeno[5,6-e][1,2,4]triazin-3-amine 1-Oxide] | 139 to 141 °C
13 | Nc1nc2cc3c(cc2[n+]([O-])n1)OCC3 [Compound 195, 6,7-Dihydrofuro[3,2-g][1,2,4]benzotriazin-3-amine 1-Oxide] | 241 to 246 °C
14 | CCc1nc2ccc3c(c2[n+]([O-])n1)CN(C)CC3 [Compound 264, 3-Ethyl-9-methyl-7,8,9,10-tetrahydro[1,2,4]triazino[5,6-h]isoquinoline 1 Oxide] | 99 to 102 °C
15 | CCNc1nc2cc3c(cc2[n+]([O-])n1)CC(CO)C3 (stereo not shown) [Compound 126, [3-(Ethylamino)-1-oxido-7,8-dihydro-6H-indeno[5,6-e][1,2,4]triazin-7-yl]methanol] | 150 °C
16 | CCc1nc2cc3c(cc2[n+]([O-])n1)CCN(C)C3 [Compound 260, 3-Ethyl-7-methyl-6,7,8,9-tetrahydro[1,2,4]triazino[6,5-g]isoquinoline 1-Oxide] | 129 to 131 °C
17 | CCc1n[n+]([O-])c2cc3c(cc2[n+]1[O-])CC(CCN1CCOCC1)C3 (stereo not shown) (as salt: hydrochloride) [Compound 164, 3-Ethyl-7-[2-(4-morpholinyl)ethyl]-7,8-dihydro-6H-indeno[5,6-e][1,2,4]triazine 1,4-Dioxide] | 131 to 133 °C
18 | CN1CCc2cc3c(cc2C1)nc(Cl)n[n+]3[O-] [Compound 257, 3-Chloro-7-methyl-6,7,8,9-tetrahydro[1,2,4]triazino[6,5-g]isoquinoline 1-Oxide] | 179 °C (dec.)
19 | CCc1nc2cc3c(cc2[n+]([O-])n1)CC(CCO)C3 (stereo not shown) [Compound 161, 2-(3-Ethyl-1-oxido-7,8-dihydro-6H-indeno[5,6-e][1,2,4]triazin-7-yl)ethanol] | 96 to 99 °C
20 | COC1CCN(CCCNc2nc3cc4c(cc3[n+]([O-])n2)CCC4)CC1 [Compound 58, N-[3-(4-Methoxy-1-piperidinyl)propyl]-7,8-dihydro-6H-indeno[5,6-e][1,2,4]triazin-3-amine 1-Oxide] | 120 to 121 °C

Row | SMILES | melting point
21 | CN(C)CCNc1nc2ccc3c(c2[n+]([O-])n1)CCCC3 [Compound 172, N^1,N^1-Dimethyl-N^2-(1-oxido-7,8,9,10-tetrahydronaphtho[2,1-e][1,2,4]triazin-3-yl)-1,2-ethanediamine] | 151 to 153 °C
22 | CC1Cc2cc3nc(CCCN4CCOCC4)n[n+]([O-])c3cc2C1 (stereo not shown) [Compound 102, 7-Methyl-3-[3-(4-morpholinyl)propyl]-7,8-dihydro-6H-indeno[5,6-e][1,2,4]triazine 1-Oxide] | 70 to 71 °C
23 | CCc1nc2cc3c(cc2[n+]([O-])n1)CC(CN1CCOCC1)C3 (stereo not shown) [Compound 143, 3-Ethyl-7-(4-morpholinylmethyl)-7,8-dihydro-6H-indeno[5,6-e][1,2,4]triazine 1-Oxide] | 111 to 112 °C
24 | CCCN(CCC)CCNc1nc2cc3c(cc2[n+]([O-])n1)CCC3 [Compound 28, N^1-(1-Oxido-7,8-dihydro-6H-indeno[5,6-e][1,2,4]triazin-3-yl)-N^2,N^2-dipropyl-1,2-ethanediamine] | 95 to 97 °C
25 | O=CCCc1nc2cc3c(cc2[n+]([O-])n1)CCC3 [Compound 75, 3-(1-oxido-7,8-dihydro-6H-indeno[5,6-e][1,2,4]triazin-3-yl)propanal] | 72 to 74 °C
26 | [O-][n+]1nc(NCCCO)nc2cc3c(cc21)CCC3 [Compound 50, 3-[(1-Oxido-7,8-dihydro-6H-indeno[5,6-e][1,2,4]triazin-3-yl)amino]-1-propanol] | 190 to 190.5 °C
27 | CCc1nc2cc3c(cc2[n+]([O-])n1)CC(CO)C3 (stereo not shown) [Compound 142, (3-Ethyl-1-oxido-7,8-dihydro-6H-indeno[5,6-e][1,2,4]triazin-7-yl)methanol] | 122 to 123 °C
28 | [O-][n+]1nc(Cl)nc2cc3c(cc21)CCO3 [Compound 206, 3-Chloro-7,8-dihydrofuro[2,3-g][1,2,4]benzotriazine 1-Oxide] | 203 to 205 °C
29 | [O-][n+]1nc(NCCN2CCOCC2)[n+]([O-])c2cc3c(cc21)CCC3 (as salt: hydrochloride) [Compound 45, N-[2-(4-Morpholinyl)ethyl]-7,8-dihydro-6H-indeno[5,6-e][1,2,4]triazin-3-amine 1,4-Dioxide] | 184 to 185 °C
30 | [O-][n+]1nc(NCCCN2CCOCC2)[n+]([O-])c2cc3c(cc21)CCCC3 (as salt: hydrochloride) [Compound 180, N-[3-(4-Morpholinyl)propyl]-6,7,8,9-tetrahydronaphtho[2,3-e][1,2,4]triazin-3-amine 1,4-Dioxide] | 182 to 185 °C
31 | [O-][n+]1nc(NCCN2CCCCCC2)nc2cc3c(cc21)CCC3 [Compound 46, N-[2-(1-Azepanyl)ethyl]-7,8-dihydro-6H-indeno[5,6-e][1,2,4]triazin-3-amine 1-Oxide] | 121 to 123 °C
32 | [O-][n+]1nc(CCCN2CCOCC2)nc2cc3c(cc21)CCO3 [Compound 215, 3-[3-(4-Morpholinyl)propyl]-7,8-dihydrofuro[2,3-g][1,2,4]benzotriazine 1-Oxide] | 96 to 99 °C
33 | CN(C)CCNc1n[n+]([O-])c2cc3c(cc2[n+]1[O-])CCCC3 [Compound 178, N^1-(1,4-Dioxido-6,7,8,9-tetrahydronaphtho[2,3-e][1,2,4]triazin-3-yl)-N^2,N^2-dimethyl-1,2-ethanediamine] | 148 to 151 °C
34 | [O-][n+]1nc(CCCO)nc2cc3c(cc21)CCC3 [Compound 70, 3-(1-Oxido-7,8-dihydro-6H-indeno[5,6-e][1,2,4]triazin-3-yl)-1-propanol] | 131 to 133 °C
35 | Nc1nc2cc3c(cc2[n+]([O-])n1)CC(CO)C3 (stereo not shown) [Compound 124, (3-Amino-1-oxido-7,8-dihydro-6H-indeno[5,6-e][1,2,4]triazin-7-yl)methanol] | 255 to 257 °C
36 | CN(C)CCNc1nc2ccc3c(c2[n+]([O-])n1)CCC3 [Compound 6, N^1,N^1-Dimethyl-N^2-(1-oxido-8,9-dihydro-7H-indeno[5,4-e][1,2,4]triazin-3-yl)-1,2-ethanediamine] | 186 to 190 °C
37 | CCN1Cc2cc3c(cc2C1)[n+]([O-])c(N)n[n+]3[O-] (as salt: hydrochloride) [Compound 250, 7-Ethyl-7,8-dihydro-6H-[1,2,4]triazino[5,6-f]isoindol-3-amine 1,4-Dioxide] | 230 °C
38 | COCCCN(C)CCNc1nc2cc3c(cc2[n+]([O-])n1)CCC3 [Compound 32, N^1-(3-Methoxypropyl)-N^1-methyl-N^2-(1-oxido-7,8-dihydro-6H-indeno[5,6-e][1,2,4]triazin-3-yl)-1,2-ethanediamine] | 41 to 42 °C
39 | CN1CCc2ccc3nc(N)n[n+]([O-])c3c2C1 [Compound 262, 9-Methyl-7,8,9,10-tetrahydro[1,2,4]triazino[5,6-h]isoquinolin-3-amine 1-Oxide] | 226 to 229 °C
40 | COC1CCN(CCNc2nc3cc4c(cc3[n+]([O-])n2)CCC4)CC1 [Compound 42, N-[2-(4-Methoxy-1-piperidinyl)ethyl]-7,8-dihydro-6H-indeno[5,6-e][1,2,4]triazin-3-amine 1-Oxide] | 131 to 133 °C
